We go through two molecules from patent US4866083A, “2-t-butyl-3 alkyl-5-(m-hydroxyphenyl)-1,3-oxazolidines having mydriatic effect” (University of Iowa Research Foundation, priority 1987, dated 1989).

One data set has as its system rabbit eye. Kind of data set: Mydriatic experiments, pupil diameter in the rabbit eye. It counts as in vivo, New Zealand Rabbit. On the procedure: The right eye of a normal adult New Zealand Rabbit (3-4 months) was used to measure mydriasis. A flood of diffuse light was placed at a fixed distance from the rabbit eye so that the initial pupil diameter prior to administering eye drops was about 3 mm. Changes in pupil diameter were measured from photographs taken with a 35 mm single lens reflex camera equipped with a close-up lens. Pupil diameters were measured at time 0 through about 5 hours. A dosing volume of 10 μl was administered to the right eye of a group of eight rabbits. A period of at least three days was allowed between instillations of each formulation.

The nature of data set [1]: Hydrolysis in buffered aqueous solution at 35° C. It counts as physicochemical. The settings on record: pH's between 1-7.5. On the procedure: A series of experiments were conducted at 35° C. to determine the apparent first order hydrolysis rate constant for phenylephrine oxazolidine at […]. The progress of hydrolysis of the prodrug was followed by measuring the production of pivaldehyde subsequently trapped with thiosemicarbazide (pH<4) or semicarbazide (pH 4-7.5). The resulting formation of the carbazone derivative was followed using Uv spectroscopy at 235 and 265 nm (the spectroscopy was a 8450A UV/VIS Hewlett-Packard, Chicago, Ill.). The prodrug was dissolved in either pH 1, 2, 3, 4, 5, 6, 7 or 7.5 buffered aqueous solutions. The buffers used were hydrochloric acid, formate, acetate and phosphate solutions. The carbonyl trapping reagent was included in the buffer solutions at a concentration of 3.1×10(-3) M. The initial concentration of oxazolidine prodrug was about 1.8×10(-4) M. A volume of 3 ml was used for the reaction which was monitored directly in the absorbance cell. […] The concentration of carbazone was calculated by referring to a standard curve.

Data set [2] in a line: Stability in aqueous solutions. It counts as physicochemical.
The nature of data set [3]: Distribution coefficient (log DC). It counts as physicochemical. To be noted: read-out: log DC (Dist. Coeff.).
The conditions of data set [4]: topical ocular; some individuals; cited from earlier work.

Turning to `CN1C[C@@H](c2cccc(O)c2)OC1C(C)(C)C` (single isomer, unassigned) [phenylephrine oxazolidine, 2-t-butyl-3-methyl-5-(m-hydroxyphenyl)-1,3-oxazolidine], the “potency relative to the aqueous solution of phenylephrine HCl” value in the data set on rabbit eye (based upon pupillary diameter, versus 10% viscous preparation of phenylephrine HCl, FIG. 2) is on record as “approximately 10 times”. Also, the “mydriasis compared with phenylephrine HCl” value in the data set with rabbit eye (molar equivalent concentration to 10% oil suspension of phenylephrine HCl, 10 μl to right eye, FIG. 1) is on record as “significantly greater mydriasis”. The molecule also registered a half-life in data set [1] of 5 to 12 min. Also, in data set [2], the “stability in aqueous solutions” value is reported as “not particularly stable in aqueous solutions”. Besides, the logD in data set [3] was found to be 1.383 ± 0.013.
In the case of `CNC[C@H](O)c1cccc(O)c1` [phenylephrine, 3-hydroxy-α-[(methylamino)methyl]-benzyl alcohol], in data set [4], the side effects entry is “hypertension, syncope, and even in some cases to myocardial infarction, leading to death”.
